Data: patent US8309553B2, “Anhydrous crystal form of ovrepitant maleate” (Glaxo Group Limited, priority 2008, dated 2012)

Tests used:
[1] = hygroscopicity of the crystalline form (statement only, no method described); type: physicochemical; conditions: solid form
[2] = stability of the crystalline form (statement only, no method described); type: physicochemical

hygroscopicity [1]: essentially non hygroscopic
thermodynamic stability relative to Form 2 ([2]; compared with Form 2 orvepitant maleate): thermodynamically more stable
stability of the crystalline form ([2]; solid form): particularly stable
Compound: Cc1cc(F)ccc1[C@H]1C[C@@H](N2CCN3C(=O)CC[C@H]3C2)CCN1C(=O)N(C)[C@H](C)c1cc(C(F)(F)F)cc(C(F)(F)F)c1.O=C(O)/C=C\C(=O)O [Form 1, (2R,4S)—N-{(1R)-1-[3,5-bis(trifluoromethyl)phenyl]ethyl}-2-(4-fluoro-2-methylphenyl)-N-methyl-4-[(8aS)-6-oxohexahydropyrrolo[1,2-a]pyrazin-2(1H)-yl]-1-piperidinecarboxamide maleate]
